Measurements taken from ChEMBL document CHEMBL5212743, “Selectivity Literature for EUbOPEN Chemogenomics Library wave 3” (2023).
One block for each compound: values may come before it.

Assays:
[1] = molecular target: T1, Serine/threonine-protein kinase LATS2 (Homo sapiens) (UniProt Q9NRM7); experiment: Selectivity interaction (KinomeScan (DiscoverX)) EUB0000716a LATS2; conditions: at 100 nM
T1 sequence (whole entry): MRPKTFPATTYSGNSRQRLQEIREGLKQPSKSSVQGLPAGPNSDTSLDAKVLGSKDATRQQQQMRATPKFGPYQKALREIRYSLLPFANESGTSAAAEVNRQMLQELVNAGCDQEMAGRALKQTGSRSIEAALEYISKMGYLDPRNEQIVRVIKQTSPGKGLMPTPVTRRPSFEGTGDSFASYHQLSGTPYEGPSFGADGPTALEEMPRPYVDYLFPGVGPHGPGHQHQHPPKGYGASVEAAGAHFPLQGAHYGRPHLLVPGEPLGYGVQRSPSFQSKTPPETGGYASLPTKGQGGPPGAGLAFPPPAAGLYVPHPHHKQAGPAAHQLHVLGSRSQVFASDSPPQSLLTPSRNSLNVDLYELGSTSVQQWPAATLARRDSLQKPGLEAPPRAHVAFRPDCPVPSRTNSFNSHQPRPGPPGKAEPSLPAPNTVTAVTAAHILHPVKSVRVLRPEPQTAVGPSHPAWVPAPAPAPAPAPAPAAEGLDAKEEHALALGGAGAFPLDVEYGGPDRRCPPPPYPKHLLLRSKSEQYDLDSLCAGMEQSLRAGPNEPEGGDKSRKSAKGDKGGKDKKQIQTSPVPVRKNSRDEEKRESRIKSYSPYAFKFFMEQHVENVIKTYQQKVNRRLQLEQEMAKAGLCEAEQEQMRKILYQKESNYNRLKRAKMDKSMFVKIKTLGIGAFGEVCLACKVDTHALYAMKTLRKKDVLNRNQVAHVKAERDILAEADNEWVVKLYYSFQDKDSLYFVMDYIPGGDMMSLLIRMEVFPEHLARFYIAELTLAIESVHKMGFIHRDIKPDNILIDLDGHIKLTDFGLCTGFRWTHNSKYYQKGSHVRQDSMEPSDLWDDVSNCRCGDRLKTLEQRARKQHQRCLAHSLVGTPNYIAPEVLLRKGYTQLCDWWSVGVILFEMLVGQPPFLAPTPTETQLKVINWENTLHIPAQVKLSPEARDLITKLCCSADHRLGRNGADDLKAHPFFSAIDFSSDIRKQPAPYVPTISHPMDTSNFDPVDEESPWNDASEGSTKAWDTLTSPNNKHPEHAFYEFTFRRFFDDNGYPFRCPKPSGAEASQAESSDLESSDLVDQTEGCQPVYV

[2] = molecular target: cAMP-dependent protein kinase catalytic subunit alpha (Homo sapiens, UniProt P17612); experiment: Selectivity interaction (KinomeScan (DiscoverX)) EUB0000716a PRKACA; conditions: at 100 nM
[3] = molecular target: T2, Sodium-dependent dopamine transporter (Homo sapiens, UniProt Q01959); experiment: (§1) Selectivity interaction (Eurofins-Panlabs radioligand binding assay) EUB0000716a SLC6A3
T2 sequence (Q01959 whole entry): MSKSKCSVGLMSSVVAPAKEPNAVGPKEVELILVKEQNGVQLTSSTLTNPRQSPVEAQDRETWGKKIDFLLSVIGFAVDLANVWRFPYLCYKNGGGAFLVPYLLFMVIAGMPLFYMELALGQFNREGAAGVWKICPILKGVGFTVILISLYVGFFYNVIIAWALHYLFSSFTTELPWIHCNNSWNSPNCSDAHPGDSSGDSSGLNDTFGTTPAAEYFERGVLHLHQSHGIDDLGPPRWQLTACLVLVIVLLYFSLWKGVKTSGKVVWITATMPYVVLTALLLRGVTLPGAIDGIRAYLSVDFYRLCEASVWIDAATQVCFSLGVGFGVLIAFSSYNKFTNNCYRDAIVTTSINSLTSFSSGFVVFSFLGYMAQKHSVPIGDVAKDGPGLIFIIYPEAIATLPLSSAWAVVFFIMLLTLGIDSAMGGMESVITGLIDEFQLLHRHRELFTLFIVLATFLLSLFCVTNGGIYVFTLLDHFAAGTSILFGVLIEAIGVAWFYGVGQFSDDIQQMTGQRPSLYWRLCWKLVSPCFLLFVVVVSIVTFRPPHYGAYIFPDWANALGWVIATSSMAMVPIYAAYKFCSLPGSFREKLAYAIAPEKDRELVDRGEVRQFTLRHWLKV

[4] = molecular target: T2, Sodium-dependent dopamine transporter; experiment: as §1; remark: listed apart in the source
[5] = molecular target: T3, Serine/threonine-protein kinase LATS1 (Homo sapiens) (UniProt O95835); experiment: Selectivity interaction (KinomeScan (DiscoverX)) EUB0000716a LATS1; conditions: at 100 nM
T3 sequence (whole entry): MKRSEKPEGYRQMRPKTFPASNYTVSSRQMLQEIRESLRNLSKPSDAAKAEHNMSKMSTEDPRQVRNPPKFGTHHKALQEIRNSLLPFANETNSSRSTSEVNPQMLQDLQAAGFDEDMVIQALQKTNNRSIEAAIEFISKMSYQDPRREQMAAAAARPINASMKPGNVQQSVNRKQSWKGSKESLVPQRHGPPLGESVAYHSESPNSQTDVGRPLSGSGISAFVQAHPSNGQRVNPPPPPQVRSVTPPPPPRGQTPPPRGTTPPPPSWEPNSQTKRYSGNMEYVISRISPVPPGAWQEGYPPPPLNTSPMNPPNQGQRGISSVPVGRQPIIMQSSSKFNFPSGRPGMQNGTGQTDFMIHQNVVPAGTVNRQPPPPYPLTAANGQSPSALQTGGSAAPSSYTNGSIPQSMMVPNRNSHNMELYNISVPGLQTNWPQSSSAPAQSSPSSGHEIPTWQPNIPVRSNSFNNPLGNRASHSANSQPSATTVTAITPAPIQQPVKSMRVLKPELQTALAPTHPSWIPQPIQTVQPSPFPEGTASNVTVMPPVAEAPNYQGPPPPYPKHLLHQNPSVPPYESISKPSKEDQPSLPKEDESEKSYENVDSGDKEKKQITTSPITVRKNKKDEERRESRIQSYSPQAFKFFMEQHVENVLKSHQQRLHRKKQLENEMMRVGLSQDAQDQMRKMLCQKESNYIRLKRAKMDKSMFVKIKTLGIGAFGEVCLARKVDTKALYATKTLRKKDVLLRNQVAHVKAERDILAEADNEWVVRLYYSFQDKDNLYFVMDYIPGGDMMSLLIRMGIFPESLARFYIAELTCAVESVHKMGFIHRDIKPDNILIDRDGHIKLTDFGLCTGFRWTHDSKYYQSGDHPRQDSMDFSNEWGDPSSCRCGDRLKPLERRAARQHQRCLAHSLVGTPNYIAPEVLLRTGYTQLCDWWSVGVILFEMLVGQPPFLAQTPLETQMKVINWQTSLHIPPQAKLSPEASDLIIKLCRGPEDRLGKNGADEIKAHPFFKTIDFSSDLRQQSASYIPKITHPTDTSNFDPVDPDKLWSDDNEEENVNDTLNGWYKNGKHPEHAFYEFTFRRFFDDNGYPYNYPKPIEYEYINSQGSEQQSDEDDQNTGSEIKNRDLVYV

[6] = molecular target: cAMP-dependent protein kinase catalytic subunit beta (Homo sapiens) (UniProt P22694); experiment: Selectivity interaction (KinomeScan (DiscoverX)) EUB0000716a PRKACB; conditions: at 100 nM
[7] = molecular target: cGMP-dependent protein kinase 1 (Homo sapiens) (UniProt Q13976); experiment: Selectivity interaction (KinomeScan (DiscoverX)) EUB0000716a PRKG1; conditions: at 100 nM
Sequence of cGMP-dependent protein kinase 1 (Homo sapiens) (Q13976 whole entry): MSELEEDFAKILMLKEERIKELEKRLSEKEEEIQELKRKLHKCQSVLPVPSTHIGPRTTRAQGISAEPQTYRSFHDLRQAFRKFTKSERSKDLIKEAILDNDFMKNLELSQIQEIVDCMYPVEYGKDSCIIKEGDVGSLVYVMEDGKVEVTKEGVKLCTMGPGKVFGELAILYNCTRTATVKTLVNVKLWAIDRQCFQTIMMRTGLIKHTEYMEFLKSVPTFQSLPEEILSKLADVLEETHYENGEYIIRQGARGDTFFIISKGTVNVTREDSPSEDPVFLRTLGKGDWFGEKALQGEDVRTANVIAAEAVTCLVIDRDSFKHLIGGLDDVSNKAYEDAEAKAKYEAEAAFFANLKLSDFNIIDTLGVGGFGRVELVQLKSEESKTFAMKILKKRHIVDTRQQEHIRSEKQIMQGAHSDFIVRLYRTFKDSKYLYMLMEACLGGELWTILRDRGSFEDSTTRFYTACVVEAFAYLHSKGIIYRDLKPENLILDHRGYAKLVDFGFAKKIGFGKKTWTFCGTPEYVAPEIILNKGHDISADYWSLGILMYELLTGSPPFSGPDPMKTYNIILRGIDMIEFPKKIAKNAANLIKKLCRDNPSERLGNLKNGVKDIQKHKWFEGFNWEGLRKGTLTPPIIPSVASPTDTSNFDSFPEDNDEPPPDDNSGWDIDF

[8] = molecular target: Transcription initiation factor TFIID subunit 1-like (Homo sapiens) (UniProt Q8IZX4); experiment: Selectivity interaction (BROMOscan (DiscoverX)) EUB0000191c TAF1L; conditions: at 100 nM
[9] = molecular target: Histone acetyltransferase p300 (Homo sapiens) (UniProt Q09472); experiment: Selectivity interaction (Bromodomain panel (DSF assay)) EUB0000191c EP300
Sequence of Histone acetyltransferase p300 (Homo sapiens) (Q09472 whole entry): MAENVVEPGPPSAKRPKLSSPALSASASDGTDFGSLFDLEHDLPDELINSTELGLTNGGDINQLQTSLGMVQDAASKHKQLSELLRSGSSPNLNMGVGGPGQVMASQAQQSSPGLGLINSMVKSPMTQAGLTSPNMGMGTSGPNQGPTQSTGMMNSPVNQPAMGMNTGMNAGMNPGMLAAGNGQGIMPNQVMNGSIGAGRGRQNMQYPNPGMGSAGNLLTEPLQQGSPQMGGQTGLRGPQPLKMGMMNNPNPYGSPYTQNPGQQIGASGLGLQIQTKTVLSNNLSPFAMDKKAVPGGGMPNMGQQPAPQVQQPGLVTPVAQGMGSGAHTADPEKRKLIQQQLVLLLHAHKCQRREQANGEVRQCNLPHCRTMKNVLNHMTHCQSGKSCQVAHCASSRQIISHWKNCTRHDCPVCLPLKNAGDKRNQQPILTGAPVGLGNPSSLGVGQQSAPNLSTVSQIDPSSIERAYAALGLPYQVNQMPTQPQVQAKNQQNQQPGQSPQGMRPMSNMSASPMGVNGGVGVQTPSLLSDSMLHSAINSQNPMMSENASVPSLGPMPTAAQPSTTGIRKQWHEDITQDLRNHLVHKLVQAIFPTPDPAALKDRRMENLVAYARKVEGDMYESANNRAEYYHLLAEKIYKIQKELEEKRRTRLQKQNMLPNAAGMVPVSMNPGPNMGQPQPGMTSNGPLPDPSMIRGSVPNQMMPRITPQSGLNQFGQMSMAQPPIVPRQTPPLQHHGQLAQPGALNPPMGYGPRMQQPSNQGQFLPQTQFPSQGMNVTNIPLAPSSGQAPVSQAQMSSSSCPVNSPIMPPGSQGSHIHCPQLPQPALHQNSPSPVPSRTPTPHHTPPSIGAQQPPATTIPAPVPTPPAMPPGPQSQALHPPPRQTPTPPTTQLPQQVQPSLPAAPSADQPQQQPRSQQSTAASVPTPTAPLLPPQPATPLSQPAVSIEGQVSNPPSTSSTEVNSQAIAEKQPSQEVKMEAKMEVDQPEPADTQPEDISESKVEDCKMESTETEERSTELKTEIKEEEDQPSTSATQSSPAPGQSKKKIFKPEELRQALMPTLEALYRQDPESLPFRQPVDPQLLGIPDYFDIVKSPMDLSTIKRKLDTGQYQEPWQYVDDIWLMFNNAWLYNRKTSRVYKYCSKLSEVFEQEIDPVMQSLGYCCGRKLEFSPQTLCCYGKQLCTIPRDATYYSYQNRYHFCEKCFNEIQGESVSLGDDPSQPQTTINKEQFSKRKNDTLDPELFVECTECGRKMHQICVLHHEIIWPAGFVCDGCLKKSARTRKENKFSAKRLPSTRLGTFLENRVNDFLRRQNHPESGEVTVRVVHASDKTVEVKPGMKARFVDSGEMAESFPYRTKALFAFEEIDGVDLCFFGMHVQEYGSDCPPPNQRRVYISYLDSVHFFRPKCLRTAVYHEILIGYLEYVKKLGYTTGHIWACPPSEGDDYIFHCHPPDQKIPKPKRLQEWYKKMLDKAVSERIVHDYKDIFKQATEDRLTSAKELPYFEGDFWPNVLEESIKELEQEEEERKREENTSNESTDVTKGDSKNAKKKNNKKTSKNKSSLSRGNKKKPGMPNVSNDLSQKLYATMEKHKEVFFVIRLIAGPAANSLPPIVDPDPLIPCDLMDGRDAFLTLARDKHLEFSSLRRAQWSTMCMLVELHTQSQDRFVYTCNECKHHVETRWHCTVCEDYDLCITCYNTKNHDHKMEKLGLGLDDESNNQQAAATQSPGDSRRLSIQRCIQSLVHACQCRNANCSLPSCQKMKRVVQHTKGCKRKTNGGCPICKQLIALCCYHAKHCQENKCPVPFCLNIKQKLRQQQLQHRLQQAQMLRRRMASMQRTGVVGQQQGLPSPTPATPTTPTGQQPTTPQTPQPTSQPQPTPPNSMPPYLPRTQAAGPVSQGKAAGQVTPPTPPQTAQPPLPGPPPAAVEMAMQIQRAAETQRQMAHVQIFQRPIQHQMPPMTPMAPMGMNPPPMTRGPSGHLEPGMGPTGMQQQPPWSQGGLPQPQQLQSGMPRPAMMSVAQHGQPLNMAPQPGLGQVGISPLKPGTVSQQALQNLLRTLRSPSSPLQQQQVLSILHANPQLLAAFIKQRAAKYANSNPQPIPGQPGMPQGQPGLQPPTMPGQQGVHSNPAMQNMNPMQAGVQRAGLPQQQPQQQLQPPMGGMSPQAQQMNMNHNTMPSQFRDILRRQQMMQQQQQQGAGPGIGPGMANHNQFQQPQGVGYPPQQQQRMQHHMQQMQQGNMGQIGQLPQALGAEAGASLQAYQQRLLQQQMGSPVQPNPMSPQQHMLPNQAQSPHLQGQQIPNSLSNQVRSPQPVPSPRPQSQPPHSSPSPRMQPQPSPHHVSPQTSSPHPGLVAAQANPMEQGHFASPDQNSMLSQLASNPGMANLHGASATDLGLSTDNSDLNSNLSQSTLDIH

[10] = molecular target: T4, Bromodomain-containing protein 4 (Homo sapiens, UniProt O60885); experiment: (§2) Selectivity interaction (TR-FRET assay) EUB0000191c BRD4
[11] = molecular target: cGMP-dependent 3',5'-cyclic phosphodiesterase (Homo sapiens) (UniProt O00408); experiment: Selectivity interaction (CEREP panel (LeadProfilingScreen Eurofins, panel of receptors, ion channels, and other enzymes)) EUB0000191c PDE2A; conditions: at 10 µM
[12] = molecular target: T5, Gamma-aminobutyric acid receptor subunit alpha-1 (Homo sapiens) (UniProt P14867); experiment: Selectivity interaction (CEREP panel (LeadProfilingScreen Eurofins, panel of receptors, ion channels, and other enzymes)) EUB0000191c GABRA1; conditions: at 10 µM
T5 sequence (whole entry): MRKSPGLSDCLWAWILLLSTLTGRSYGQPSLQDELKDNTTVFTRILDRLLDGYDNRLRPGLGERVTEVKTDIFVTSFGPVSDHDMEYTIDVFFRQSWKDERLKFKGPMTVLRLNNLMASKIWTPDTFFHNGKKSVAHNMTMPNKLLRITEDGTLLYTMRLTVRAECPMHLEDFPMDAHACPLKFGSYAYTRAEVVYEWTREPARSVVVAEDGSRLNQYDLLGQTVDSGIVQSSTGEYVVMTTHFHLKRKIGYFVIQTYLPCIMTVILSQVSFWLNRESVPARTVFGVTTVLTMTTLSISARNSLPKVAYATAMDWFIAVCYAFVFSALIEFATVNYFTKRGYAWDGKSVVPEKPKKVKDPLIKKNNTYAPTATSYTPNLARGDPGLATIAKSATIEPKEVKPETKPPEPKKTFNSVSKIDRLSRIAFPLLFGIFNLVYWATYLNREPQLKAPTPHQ

[13] = molecular target: T6, Chromatin remodeling regulator CECR2 (Homo sapiens, UniProt Q9BXF3); experiment: Selectivity interaction (ITC) EUB0000191c CECR2
CREB-binding protein = CREB-binding protein (Homo sapiens, UniProt Q92793); experiment: Selectivity interaction (BROMOscan (DiscoverX)) EUB0000191c CREBBP; conditions: at 100 nM
[14] = molecular target: cGMP-specific 3',5'-cyclic phosphodiesterase (Homo sapiens) (UniProt O76074); experiment: Selectivity interaction (CEREP panel (LeadProfilingScreen Eurofins, panel of receptors, ion channels, and other enzymes)) EUB0000191c PDE5A; conditions: at 10 µM
[15] = molecular target: T7, Bromodomain-containing protein 7 (Homo sapiens) (UniProt Q9NPI1); experiment: Selectivity interaction (Bromodomain panel (DSF assay)) EUB0000191c BRD7
T7 sequence (whole entry): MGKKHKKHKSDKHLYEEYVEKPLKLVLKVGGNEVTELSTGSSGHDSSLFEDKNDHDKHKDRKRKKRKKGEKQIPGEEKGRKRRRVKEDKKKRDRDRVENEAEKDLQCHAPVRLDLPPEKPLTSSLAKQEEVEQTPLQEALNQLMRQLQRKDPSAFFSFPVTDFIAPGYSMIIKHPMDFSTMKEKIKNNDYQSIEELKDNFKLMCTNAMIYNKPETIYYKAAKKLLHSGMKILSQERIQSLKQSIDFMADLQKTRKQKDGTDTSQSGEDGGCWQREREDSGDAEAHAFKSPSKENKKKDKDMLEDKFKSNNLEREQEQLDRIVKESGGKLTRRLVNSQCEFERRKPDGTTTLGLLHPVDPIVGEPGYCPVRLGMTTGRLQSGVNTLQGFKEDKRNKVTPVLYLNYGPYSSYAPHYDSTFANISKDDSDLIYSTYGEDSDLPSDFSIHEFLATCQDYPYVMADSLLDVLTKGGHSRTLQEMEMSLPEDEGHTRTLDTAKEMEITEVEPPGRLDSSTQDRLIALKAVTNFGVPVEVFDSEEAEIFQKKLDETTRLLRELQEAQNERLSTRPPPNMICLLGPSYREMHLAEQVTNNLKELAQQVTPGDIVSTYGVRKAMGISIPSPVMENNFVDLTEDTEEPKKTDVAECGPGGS

[16] = molecular target: T6, Chromatin remodeling regulator CECR2; experiment: Selectivity interaction (Bromodomain panel (DSF assay)) EUB0000191c CECR2
[17] = molecular target: T8, Adenosine receptor A1 (Homo sapiens) (UniProt P30542); experiment: Selectivity interaction (CEREP panel (LeadProfilingScreen Eurofins, panel of receptors, ion channels, and other enzymes)) EUB0000191c ADORA1; conditions: at 10 µM
T8 sequence (whole entry): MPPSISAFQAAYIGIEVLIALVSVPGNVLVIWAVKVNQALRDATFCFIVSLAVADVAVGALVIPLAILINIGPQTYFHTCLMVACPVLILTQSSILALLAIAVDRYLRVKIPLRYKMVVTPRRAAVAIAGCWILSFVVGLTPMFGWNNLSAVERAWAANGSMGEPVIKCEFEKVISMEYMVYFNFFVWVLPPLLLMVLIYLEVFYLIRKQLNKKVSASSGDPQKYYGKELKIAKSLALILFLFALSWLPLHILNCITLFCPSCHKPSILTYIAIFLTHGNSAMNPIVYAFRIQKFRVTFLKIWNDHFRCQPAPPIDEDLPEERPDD

[18] = molecular target: T4, Bromodomain-containing protein 4; experiment: as §2; remark: listed apart in the source
[19] = molecular target: Phosphatidylinositol 4,5-bisphosphate 3-kinase catalytic subunit alpha isoform (Homo sapiens, UniProt P42336); experiment: Selectivity interaction (KinomeScan (DiscoverX)) EUB0000703a PIK3CA; conditions: at 1 µM
Sequence of Phosphatidylinositol 4,5-bisphosphate 3-kinase catalytic subunit alpha isoform (P42336 whole entry, canonical isoform): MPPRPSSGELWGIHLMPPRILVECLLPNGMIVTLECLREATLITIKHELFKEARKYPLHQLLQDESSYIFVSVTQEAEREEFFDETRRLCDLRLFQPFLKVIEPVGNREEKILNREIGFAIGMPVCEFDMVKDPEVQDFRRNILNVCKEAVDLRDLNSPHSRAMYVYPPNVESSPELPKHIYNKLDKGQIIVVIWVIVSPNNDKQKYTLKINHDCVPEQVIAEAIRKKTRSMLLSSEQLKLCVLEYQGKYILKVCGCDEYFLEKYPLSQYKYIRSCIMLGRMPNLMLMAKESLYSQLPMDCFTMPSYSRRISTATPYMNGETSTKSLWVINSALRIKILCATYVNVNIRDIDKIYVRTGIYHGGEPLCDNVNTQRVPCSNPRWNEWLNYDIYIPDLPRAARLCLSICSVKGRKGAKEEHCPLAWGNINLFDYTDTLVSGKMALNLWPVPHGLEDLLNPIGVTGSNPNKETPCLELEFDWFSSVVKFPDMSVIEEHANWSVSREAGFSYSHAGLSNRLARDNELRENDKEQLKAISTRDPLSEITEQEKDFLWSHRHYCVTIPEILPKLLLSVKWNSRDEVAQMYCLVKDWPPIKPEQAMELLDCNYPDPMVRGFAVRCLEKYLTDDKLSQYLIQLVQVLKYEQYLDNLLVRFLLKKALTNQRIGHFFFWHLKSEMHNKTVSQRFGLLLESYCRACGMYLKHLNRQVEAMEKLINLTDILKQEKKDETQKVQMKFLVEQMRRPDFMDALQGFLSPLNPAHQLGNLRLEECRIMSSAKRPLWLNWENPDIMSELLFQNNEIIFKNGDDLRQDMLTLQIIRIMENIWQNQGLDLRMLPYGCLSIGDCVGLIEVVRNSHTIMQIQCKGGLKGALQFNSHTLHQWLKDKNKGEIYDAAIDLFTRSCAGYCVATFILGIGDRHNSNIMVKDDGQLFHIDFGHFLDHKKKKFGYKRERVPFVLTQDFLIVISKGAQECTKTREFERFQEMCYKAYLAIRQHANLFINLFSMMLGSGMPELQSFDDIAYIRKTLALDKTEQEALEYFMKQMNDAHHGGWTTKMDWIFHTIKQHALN

[20] = molecular target: Tyrosine-protein kinase Lyn (Homo sapiens, UniProt P07948); experiment: Selectivity interaction (NanoBRET assay (HEK293T cells)) EUB0000703a LYN
[21] = molecular target: Epithelial discoidin domain-containing receptor 1 (Homo sapiens, UniProt Q08345); experiment: Selectivity interaction (KinomeScan (DiscoverX)) EUB0000703a DDR1; conditions: at 1 µM
[22] = system: Serine/threonine-protein kinase B-raf (Homo sapiens), P15056 [V600E]; experiment: Selectivity interaction (KinomeScan (DiscoverX)) EUB0000703a BRAF; conditions: at 1 µM
[23] = molecular target: Kappa-type opioid receptor (Homo sapiens, UniProt P41145); experiment: Selectivity interaction (GPCR panel (PDSP screen)) EUB0000703a OPRK1
[24] = molecular target: Sodium-dependent noradrenaline transporter (Homo sapiens, UniProt P23975); experiment: Selectivity interaction (GPCR panel (PDSP screen)) EUB0000703a SLC6A2
[25] = molecular target: Discoidin domain-containing receptor 2 (Homo sapiens) (UniProt Q16832); experiment: Selectivity interaction (KinomeScan (DiscoverX)) EUB0000703a DDR2; conditions: at 1 µM
[26] = molecular target: T9, Gamma-aminobutyric acid receptor subunit alpha-1 (Homo sapiens, UniProt P14867); experiment: Selectivity interaction (GPCR panel (PDSP screen)) EUB0000703a GABRA1
T9 sequence (P14867 whole entry): T5 sequence (whole entry)

D(2) dopamine receptor = D(2) dopamine receptor (Homo sapiens, UniProt P14416); experiment: Selectivity interaction (GPCR panel (PDSP screen)) EUB0000703a DRD2

% of control [1]: 0.7%
% of control [2]: 28%
Ki [3]: 0.027 µM
Ki [4]: 0.039 µM
% of control [5]: 42%
% of control [6]: 36%
% of control [7]: 49%
Compound: Cc1c[nH]c2nccc(Oc3c(F)cc(Nc4cc(Cl)nc(N)n4)cc3F)c12 [BAY-549]

% of control [8]: 0.7%
dTm [9]: 3.5 K
IC50 [10]: > 20 µM
% of control [11]: 49%
% of control [12]: 23%
Kd [13]: 1.39 µM
% of control (CREB-binding protein): 30%
% of control [14]: 2%
dTm [15]: 2.3 K
dTm [16]: 3.5 K
% of control [17]: 48%
IC50 [18]: > 15 µM
Compound: Cc1cc2c(cc1N1C(=O)c3cccc4c(CCCO)ccc(c34)C1=O)n(C)c(=O)n2C

% of control [19]: 23%
IC50 [20]: 7 µM
% of control [21]: 0%
% of control [22]: 24%
Ki [23]: > 10 µM
Ki [24]: > 10 µM
% of control [25]: 18%
Ki [26]: 10.9 µM
Ki (D(2) dopamine receptor): > 10 µM
Compound: Cc1cc(NC(=O)c2cccc(S(F)(F)(F)(F)F)c2)cc(-n2ccn3nc(-c4cccnc4)cc23)c1 [BAY-309]
